Conditions in the first series: not given
`CCOP(=S)(OCC)Oc1ccc(S(C)=O)cc1` (centres undefined) had a log partition coefficient (logP) of 2.23.

With `CCOP(=O)(OCC)SCS(=O)(=O)CC`, the lipophilicity (logP) turned out to be 1.98.

The molecule `CCOP(=S)(OCC)Oc1cc(C)nc(N(CC)CC)n1` showed a logP of 4.85.

For `CCOP(=S)(OCC)Oc1ccc(S(C)(=O)=O)cc1`, the logP was found to be 2.56.

For `CCOP(=S)(OCC)Oc1ccc(N)cc1`, the log partition coefficient (logP) worked out at 2.6. The logP values of the last two molecules are within 0.2 log units of each other.

Turning to `CCOP(=O)(OCC)Oc1cc(C)nc(C(C)C)n1`, the logP was found to be 2.07.

The molecule `COP(=S)(OC)Oc1cc(Cl)c(Br)cc1Cl` registered a lipophilicity (logP) of 4.88.

`CCOP(=O)(OCC)Oc1ccc([N+](=O)[O-])cc1`: the logP was determined as 1.98.

As to `Cc1cc(Cl)ccc1/N=C/N(C)C`, the lipophilicity (logP) worked out at 2.89.

`CCOP(=S)(OCC)SCCS(=O)(=O)CC` had a logP of 1.87.

Molecule `CCOP(=S)(OCC)Oc1ccc(SC)cc1` yielded a logP of 4.16.

As for `CCOP(=S)(OCC)Oc1cc(C)nc(C(C)C)n1`, the logP amounted to 3.81.

Turning to `COP(=O)(OC)SCn1nnc2ccccc2c1=O`, the log partition coefficient (logP) is 0.78.

`COP(=O)(Oc1cc(Cl)c(Br)cc1Cl)c1ccccc1` (centres undefined) returned a log partition coefficient (logP) of 4.58.

Regarding `COP(=S)(OC)SCSc1ccc(Cl)cc1`, the lipophilicity (logP) was 4.82.

For the molecule `CCOP(=S)(OCC)Oc1cc(Cl)c(Br)cc1Cl`, the lipophilicity (logP) came to 5.68.

Molecule `COP(=S)(OC)SCN1C(=O)c2ccccc2C1=O` returned a log partition coefficient (logP) of 2.78.

In the case of `COP(=S)(Oc1cc(Cl)c(Br)cc1Cl)c1ccccc1` (centres undefined), the logP amounted to 5.88.

The series is the same for the next values; noted with them: pH 9.0.
With `CNC(=O)Oc1ccc(N(C)C)c(C)c1`, the logD was 1.9.

A word on the logP: it is a log measure of how a compound divides between an organic and an aqueous phase. Low values mean a more hydrophilic compound, high ones a more lipophilic compound. As a reminder, the logD is lipophilicity at a set pH, counting ionised and neutral species. Higher therefore signals a more lipophilic compound.

Source of the values: the SangsterLogP compilation.
